# Reference: US6608082B1, “Treatment of erectile dysfunction using isoquinoline compound melanocortin receptor ligands” (Lion Bioscience AG, priority 1998, dated 2003)
# pIC50: −log10 of the molar value. Where two headings read alike, the source gives them in different places.
# How the values were obtained:
# MCR-4 = molecular target: T1, MCR-4 (Homo sapiens, UniProt P32245); assay: Melanocortin receptor binding assay, competition with 125I-HP 467, HEK 293 cells expressing hMCR-4; details: read-out: MC-4 IC50
# T1 construct: expressed in transfected cells; host or cells: HEK 293
# T1 sequence (P32245 whole entry): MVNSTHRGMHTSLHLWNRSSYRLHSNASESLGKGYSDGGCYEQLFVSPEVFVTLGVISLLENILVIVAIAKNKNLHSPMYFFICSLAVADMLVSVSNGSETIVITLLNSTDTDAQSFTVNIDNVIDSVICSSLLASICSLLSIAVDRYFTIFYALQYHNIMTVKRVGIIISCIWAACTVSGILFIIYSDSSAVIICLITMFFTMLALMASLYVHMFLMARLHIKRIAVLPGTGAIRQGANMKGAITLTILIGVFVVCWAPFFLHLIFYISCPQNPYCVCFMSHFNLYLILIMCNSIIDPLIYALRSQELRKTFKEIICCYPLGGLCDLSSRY
# Outline: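 Test compounds compete on intact HEK 293 cells carrying hMCR-1 (2×10^4 per tube) or hMCR-4 (4×10^3 per tube), suspended in PBS, 10% calf serum, 1 mM CaCl2.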
# MCR-5 = molecular target: T2, MCR-5 (Homo sapiens, UniProt P33032); assay: Melanocortin receptor binding assay, competition with 125I-HP 467, HEK 293 cells expressing hMCR-5; details: binding to MCR-5, HEK 293 cells; read-out: MC-5 IC50
# T2 construct: expressed in transfected cells; host or cells: HEK 293
# T2 sequence (P33032 whole entry): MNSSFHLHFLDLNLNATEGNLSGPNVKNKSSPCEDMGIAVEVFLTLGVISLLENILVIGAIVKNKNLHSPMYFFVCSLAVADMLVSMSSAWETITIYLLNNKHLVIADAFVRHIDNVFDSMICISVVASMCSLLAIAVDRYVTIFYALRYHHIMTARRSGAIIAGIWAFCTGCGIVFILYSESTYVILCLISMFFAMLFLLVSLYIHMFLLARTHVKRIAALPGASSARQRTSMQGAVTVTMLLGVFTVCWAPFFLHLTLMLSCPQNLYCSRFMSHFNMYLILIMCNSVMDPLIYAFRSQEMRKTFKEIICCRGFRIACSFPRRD
# From the text: All cell culture media and reagents were obtained from GibcoBRL (Gaithersburg Md.), except for COSMIC CALF SERUM (HyClone; Logan Utah). HEK-293 cell lines were transfected with the human MC receptors hMCR-1, hMCR-3, and hMCR-4 (Gantz et al., Biochem. Biophys. Res. Comm. 200:1214-1220 (1994); Gantz et al., J. Biol. Chem. 268:8246-8250 (1993); Gantz et al. J. Biol. Chem. 268:15174-15179 (1993); Haskell-Leuvano et al., Biochem. Biophys. Res. Comm. 204:1137-1142 (1994); each of which is incorporated herein by reference). Vectors for construction of an hMCR-5 expressing cell line were obtained, and a line of HEK 293 cells expressing hMCR-5 was constructed (Gantz, supra, 1994). hMCR-5 has been described previously (Franberg et al., Biochem. Biophys. Res. Commun. 236:489-492 (1997); Chowdhary et al., Cytogenet. Cell Genet. 68:1-2 (1995); Chowdhary et al., Cytogenet. Cell Genet. 68:79-81 (1995), each of which is incorporated herein by reference). HEK 293 cells were maintained in DMEM, 25 mM HEPES, 2 mM glutamine, non-essential amino acids, vitamins, sodium pyruvate, 10% COSMIC CALF SERUM, 100 units/ml penicillin, 100 μg/ml streptomycin and 0.2 mg/ml G418 to maintain selection.
# Before assaying, cells were washed once with phosphate buffered saline (“PBS”; without Ca^2+ and Mg^2+), and stripped from the flasks using 0.25% trypsin and 0.5 mM EDTA. Cells were suspended in PBS, 10% COSMIC CALF SERUM and 1 mM CaCl2. Cell suspensions were prepared at a density of 2×10^4 cells/ml for HEK 293 cells expressing hMCR-3, hMCR-4 or hMCR-5, and 1×10^5 cells/ml for HEK 293 cells expressing hMCR-1. Suspensions were placed in a water bath and allowed to warm to 37° C. for 1 hr.
# Binding assays were performed in a total volume of 250 μl for HEK 293 cells. Control and test compounds were dissolved in distilled water. ^125I-HP 467 (50,000 dpm) (2000 Ci/mmol) (custom labeled by Amersham; Arlington Heights Ill.) was prepared in 50 mM Tris, pH 7.4, 2 mg/ml BSA, 10 mM CaCl2, 5 mM MgCl2, 2 mM EDTA and added to each tube. To each tube was added 4×10^3 HEK 293 cells expressing hMCR-3, hMCR-4 or hMCR-5, or 2×10^4 cells expressing hMCR-1. Assays were incubated for 2.5 hr at 37° C.
# GF/B filter plates were prepared by soaking for at least one hour in 5 mg/ml BSA and 10 mM CaCl2. Assays were filtered using a Brandel 96-well cell harvester (Brandel Inc.; Gaithersburg, Md.). The filters were washed four times with cold 50 mM Tris, pH 7.4, the filter plates were dehydrated for 2 hr and 35 μl of MICROSCINT was added to each well. Filter plates were counted using a Packard Topcount (Packard Instrument Co.) and data analyzed using GraphPad PRISM v2.0 (GraphPad Software Inc.; San Diego Calif.) and Microsoft EXCEL v5.0a (Microsoft Corp.; Redmond Wash.).
# To assay isoquinoline compounds, binding assays were performed in duplicate in a 96 well format. HP 467 was prepared in 50 mM Tris, pH 7.4, and ^125I-HP 467 was diluted to give 100,000 dpm per 50 μl. An isoquinoline compound, synthesized as described in Example I, was added to the well in 25 μl aliquots. A 25 μl aliquot of ^125I-HP 467 was added to each well. A 0.2 ml aliquot of suspended cells was added to each well to give the cell numbers indicate above, and the cells were incubated at 37° C. for 2.5 hr. Cells were harvested on GF/B filter plates as described above and counted.
# Some of the isoquinoline compounds were further tested for binding to MCR-3 and MCR-5.
# [1] = TRG 2408 and TRG 2409 libraries, inhibition of 125I-HP 467 binding
# [2] = competition with 125I-HP 467, HEK 293 cells expressing MCR-4
SMILES,pIC50 (MCR-5),further results
CNC(CN)CN1Cc2ccccc2C(CNC2CCCCC2)C1c1ccc(O)cc1 (stereo not shown) [TRG 2405-156],5.55,"pIC50 (MCR-4; TRG 2405 section, inhibition of binding of 125I-HP 467, HEK 293 cells expressing MCR-4): 4.69"
CNC(CN)CCCCN1Cc2ccccc2C(CNC2CCCCC2)C1c1ccc(N(C)C)cc1 (stereo not shown) [TRG 2405-235],5.55,–
CNC(CN)CCCCN1Cc2ccccc2C(CNC2CCCCC2)C1c1ccc(C(F)(F)F)cc1 (stereo not shown) [TRG 2405-238],6.37,–
CCNc1ccc(C2C(CNC3CCCCC3)c3ccccc3CN2CCCCC(CN)NC)cc1 (stereo not shown) [TRG 2405-239],5.06,–
CNC(CN)CCCCN1Cc2ccccc2C(CNC2CCCCC2)C1c1ccc(-c2ccccc2)cc1 (stereo not shown) [TRG 2405-241],5.98,–
CNC(CN)CCCCN1Cc2ccccc2C(CNC2CCCCC2)C1c1ccc(O)cc1 (stereo not shown) [TRG 2405-246],< 5.00,–
CCCOc1ccc(C2C(CNC3CCCCC3)c3ccccc3CN2CCCCC(CN)NC)cc1 (stereo not shown) [TRG 2405-253],5.56,–
CNC(CN)CCCCN1Cc2ccccc2C(CNC2CCCCC2)C1c1ccc2cccc(O)c2n1 (stereo not shown) [TRG 2405-262],< 5.00,–
CCNc1ccc(C2C(CNC3CCCCC3)c3ccccc3CN2CCCCC(CN)NC)cc1 (stereo not shown) [TRG 2408-30],5.03,pIC50 (MCR-4; [1]): 4.34
CCNc1ccc(C2C(CNC3CCCCC3)c3ccccc3CN2CCCC(CN)NCCc2ccccc2)cc1 (stereo not shown) [TRG 2408-62],5.55,pIC50 (MCR-4; [1]): 5.58
CCCCNc1ccc(C2C(CNCc3ccccc3O)c3ccccc3CN2CCCCC(CN)NC)cc1 (stereo not shown) [TRG 2409-2],–,pIC50 (MCR-4; [2]): 4.97
CCCCNc1ccc(C2C(CNC3CCCCC3)c3ccccc3CN2CCCCC(CN)NC)cc1 (stereo not shown) [TRG 2409-14],–,pIC50 (MCR-4; [2]): 4.82

# The remaining compounds from weak to strong by pIC50 (MCR-5), led by results:
pIC50 (MCR-5),SMILES,further results
5.73,CNC(CN)CCCCN1Cc2ccccc2C(CNC2CCCCC2)C1c1ccc(Oc2ccccc2)cc1 (stereo not shown) [TRG 2405-252],–
5.77,CCNc1ccc(C2C(CNCc3ccccc3O)c3ccccc3CN2CCCC(CN)NCCc2ccccc2)cc1 (stereo not shown) [TRG 2408-57],pIC50 (MCR-4; [1]): 5.22
6.10,CNC(CN)CCCCN1Cc2ccccc2C(CNC2CCCCC2)C1c1ccc(Cl)cc1Cl (stereo not shown) [TRG 2405-190],–
6.39,CNC(CN)CCCCN1Cc2ccccc2C(CNC2CCCCC2)C1c1ccc(Br)cc1 (stereo not shown) [TRG 2405-242],–
6.62,CNC(CN)CCCCN1Cc2ccccc2C(CN)C1c1ccc(Cl)cc1Cl (stereo not shown) [TRG 2407-39],"pIC50 (MCR-4; TRG 2406 and TRG 2407 libraries, inhibition of binding of 125I-HP 467): 6.96"
